# The supplement of paper PMC10307832
# Legend:
# Assay in all cases: relative viability (nuclei count vs DMSO), 5 days (fraction); higher = more cells survive
# NCI-H2228 = system: NCI-H2228
# Method in brief: (§1)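 Relative viability equals treated-well nuclei counts divided by vehicle-well nuclei counts. Counts came from 4× images of lung cancer cell lines grown in 1536-well plates for 5 days after pin-tool dosing on the day after seeding. Dosing used one drug alone or a fixed anchor-drug dose plus five library-drug doses (not always all listed) in √10 steps, and values are medians of duplicate plates.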
# PC-14 = system: PC-14
# Method in brief: as §1
# NCI-H460 = system: NCI-H460
# Method in brief: as §1
# LCLC-103H = system: LCLC-103H
# Method in brief: as §1
# NCI-H23 = system: NCI-H23
# Method in brief: as §1
# NCI-H1650 = system: NCI-H1650
# Method in brief: as §1
# HCC-44 = system: HCC-44
# Method in brief: as §1
# LK-2 = system: LK-2
# Method in brief: as §1
# LC-2-ad = system: LC-2-ad
# Method in brief: as §1
# LU99A = system: LU99A
# Method in brief: as §1
# SW 1573 = system: SW 1573
# Method in brief: as §1
# 201T = system: 201T
# Method in brief: as §1
# NCI-H596 = system: NCI-H596
# Method in brief: as §1
# COR-L23 = system: COR-L23
# Method in brief: as §1
# SW 900 = system: SW 900
# Method in brief: as §1
# LCLC-97TM1 = system: LCLC-97TM1
# Method in brief: as §1
# NCI-H1563 = system: NCI-H1563
# Method in brief: as §1
# A-427 = system: A-427
# Method in brief: as §1
# NCI-H2347 = system: NCI-H2347
# Method in brief: as §1
# NCI-H1793 = system: NCI-H1793
# Method in brief: as §1
# NCI-H727 = system: NCI-H727
# Method in brief: as §1
# H3255 = system: H3255
# Method in brief: as §1
compound,measurement,setting,value
COc1cc2nccc(Oc3ccc(NC(=O)Nc4cc(C)on4)c(Cl)c3)c2cc1OC [Tivozanib] + CCNC(=O)c1noc(-c2cc(C(C)C)c(O)cc2O)c1-c1ccc(CN2CCOCC2)cc1 [Luminespib] (partner 0.01 µM),relative viability,NCI-H2228; first compound 0.005 µM,0.0873
same,relative viability,NCI-H2228; first compound 0.01581 µM,0.219
same,relative viability,NCI-H2228; first compound 0.05 µM,0.112
same,relative viability,NCI-H2228; first compound 0.1581 µM,0.185
same,relative viability,NCI-H2228; first compound 0.5 µM,0.109
same,relative viability,PC-14; first compound 0.005 µM,0.115
same,relative viability,PC-14; first compound 0.01581 µM,0.139
same,relative viability,PC-14; first compound 0.05 µM,0.187
same,relative viability,PC-14; first compound 0.1581 µM,0.15
same,relative viability,PC-14; first compound 0.5 µM,0.139
same,relative viability,NCI-H460; first compound 0.005 µM,0.0252
same,relative viability,NCI-H460; first compound 0.01581 µM,0.0365
same,relative viability,NCI-H460; first compound 0.05 µM,0.0375
same,relative viability,NCI-H460; first compound 0.1581 µM,0.0404
same,relative viability,NCI-H460; first compound 0.5 µM,0.0362
same,relative viability,LCLC-103H; first compound 0.005 µM,0.847
same,relative viability,LCLC-103H; first compound 0.01581 µM,0.85
same,relative viability,LCLC-103H; first compound 0.05 µM,0.91
same,relative viability,LCLC-103H; first compound 0.1581 µM,0.964
same,relative viability,LCLC-103H; first compound 0.5 µM,0.921
same,relative viability,NCI-H23; first compound 0.01581 µM,0.198
same,relative viability,NCI-H23; first compound 0.05 µM,0.193
same,relative viability,NCI-H23; first compound 0.1581 µM,0.206
same,relative viability,NCI-H23; first compound 0.5 µM,0.207
same,relative viability,NCI-H1650; first compound 0.005 µM,0.172
same,relative viability,NCI-H1650; first compound 0.01581 µM,0.209
same,relative viability,NCI-H1650; first compound 0.05 µM,0.213
same,relative viability,NCI-H1650; first compound 0.1581 µM,0.178
same,relative viability,NCI-H1650; first compound 0.5 µM,0.203
same,relative viability,HCC-44; first compound 0.005 µM,1.01
same,relative viability,HCC-44; first compound 0.01581 µM,1.06
same,relative viability,HCC-44; first compound 0.05 µM,0.927
same,relative viability,HCC-44; first compound 0.1581 µM,1.19
same,relative viability,HCC-44; first compound 0.5 µM,1.08
same,relative viability,LK-2; first compound 0.005 µM,0.179
same,relative viability,LK-2; first compound 0.01581 µM,0.225
same,relative viability,LK-2; first compound 0.05 µM,0.184
same,relative viability,LK-2; first compound 0.1581 µM,0.233
same,relative viability,LK-2; first compound 0.5 µM,0.206
same,relative viability,LC-2-ad; first compound 0.005 µM,1.03
same,relative viability,LC-2-ad; first compound 0.01581 µM,1.19
same,relative viability,LC-2-ad; first compound 0.05 µM,0.993
same,relative viability,LC-2-ad; first compound 0.1581 µM,0.945
same,relative viability,LC-2-ad; first compound 0.5 µM,0.879
same,relative viability,LU99A; first compound 0.005 µM,0.206
same,relative viability,LU99A; first compound 0.01581 µM,0.246
same,relative viability,LU99A; first compound 0.05 µM,0.218
same,relative viability,LU99A; first compound 0.1581 µM,0.203
same,relative viability,LU99A; first compound 0.5 µM,0.274
same,relative viability,SW 1573; first compound 0.005 µM,0.644
same,relative viability,SW 1573; first compound 0.01581 µM,0.224
same,relative viability,SW 1573; first compound 0.05 µM,0.248
same,relative viability,SW 1573; first compound 0.1581 µM,0.226
same,relative viability,SW 1573; first compound 0.5 µM,0.343
same,relative viability,201T; first compound 0.005 µM,1.06
same,relative viability,201T; first compound 0.01581 µM,1.06
same,relative viability,201T; first compound 0.05 µM,1.03
same,relative viability,201T; first compound 0.1581 µM,1.06
same,relative viability,201T; first compound 0.5 µM,1.06
same,relative viability,NCI-H596; first compound 0.005 µM,0.771
same,relative viability,NCI-H596; first compound 0.01581 µM,1.04
same,relative viability,NCI-H596; first compound 0.05 µM,1.04
same,relative viability,NCI-H596; first compound 0.5 µM,0.858
same,relative viability,COR-L23; first compound 0.005 µM,0.62
same,relative viability,COR-L23; first compound 0.01581 µM,0.607
same,relative viability,COR-L23; first compound 0.05 µM,0.748
same,relative viability,COR-L23; first compound 0.1581 µM,0.597
same,relative viability,COR-L23; first compound 0.5 µM,0.532
same,relative viability,SW 900; first compound 0.005 µM,0.174
same,relative viability,SW 900; first compound 0.01581 µM,0.186
same,relative viability,SW 900; first compound 0.05 µM,0.184
same,relative viability,SW 900; first compound 0.1581 µM,0.167
same,relative viability,SW 900; first compound 0.5 µM,0.172
same,relative viability,LCLC-97TM1; first compound 0.005 µM,0.845
same,relative viability,LCLC-97TM1; first compound 0.01581 µM,0.849
same,relative viability,LCLC-97TM1; first compound 0.05 µM,0.716
same,relative viability,LCLC-97TM1; first compound 0.1581 µM,0.898
same,relative viability,LCLC-97TM1; first compound 0.5 µM,0.738
same,relative viability,NCI-H1563; first compound 0.005 µM,0.45
same,relative viability,NCI-H1563; first compound 0.01581 µM,0.539
same,relative viability,NCI-H1563; first compound 0.05 µM,0.541
same,relative viability,NCI-H1563; first compound 0.1581 µM,0.52
same,relative viability,NCI-H1563; first compound 0.5 µM,0.472
same,relative viability,A-427; first compound 0.005 µM,1.09
same,relative viability,A-427; first compound 0.01581 µM,0.902
same,relative viability,A-427; first compound 0.05 µM,1.02
same,relative viability,A-427; first compound 0.1581 µM,0.836
same,relative viability,A-427; first compound 0.5 µM,1.01
same,relative viability,NCI-H2347; first compound 0.01581 µM,0.488
same,relative viability,NCI-H2347; first compound 0.05 µM,0.886
same,relative viability,NCI-H2347; first compound 0.5 µM,0.249
same,relative viability,NCI-H1793; first compound 0.005 µM,0.154
same,relative viability,NCI-H1793; first compound 0.01581 µM,0.422
same,relative viability,NCI-H1793; first compound 0.05 µM,0.2
same,relative viability,NCI-H1793; first compound 0.1581 µM,0.141
same,relative viability,NCI-H1793; first compound 0.5 µM,0.237
same,relative viability,NCI-H727; first compound 0.005 µM,0.349
same,relative viability,NCI-H727; first compound 0.01581 µM,0.59
same,relative viability,NCI-H727; first compound 0.05 µM,0.468
same,relative viability,NCI-H727; first compound 0.1581 µM,0.528
same,relative viability,NCI-H727; first compound 0.5 µM,0.609
same,relative viability,H3255; first compound 0.005 µM,0.69
same,relative viability,H3255; first compound 0.01581 µM,0.851
same,relative viability,H3255; first compound 0.05 µM,0.821
same,relative viability,H3255; first compound 0.1581 µM,0.704
same,relative viability,H3255; first compound 0.5 µM,0.681
